Reference: patent US8236828B2, “Insecticidal compounds” (Syngenta Crop Protection LLC, priority 2007, dated 2012)

How the values were obtained:
Assay type in all cases: in vivo
[1] = tested on: Plutella xylostella (Diamond Back Moth); assay: Plutella xylostella larvae test on artificial diet; settings: same protocol, 200 ppm, 6 days
Protocol: (§1) This Example illustrates the pesticidal/insecticidal properties of compounds of formula (I). Tests were performed as follows:
(§2) • Cotton leaf discs were placed on agar in a 24-well microtiter plate and sprayed with test solutions at an application rate of 200 ppm. After drying, the leaf discs were infested with 5 L1 larvae. The samples were checked for mortality, feeding behaviour, and growth regulation 3 days after treatment (DAT). • The following compounds gave at least 80% control of Spodoptera littoralis: A1, A2, A3, A4, A5, A6, A10, A13, A17, A19. Heliothis virescens (Tobacco Budworm): • Eggs (0-24 h old) were placed in 24-well microtiter plate on artificial diet and treated with test solutions at an application rate of 200 ppm (concentration in well 18 ppm) by pipetting. After an incubation period of 4 days, samples were checked for egg mortality, larval mortality, and growth regulation. • The following compounds gave at least 80% control of Heliothis virescens: A1, A2, A3, A4, A5, A6, A7, A9, A10, A11, A12, A14, A17, A18, A19, A21. Plutella xylostella (Diamond Back Moth): • 24-well microtiter plate (MTP) with artificial diet was treated with test solutions at an application rate of 200 ppm (concentration in well 18 ppm) by pipetting. After drying, the MTP's were infested with L2 larvae (7-12 per well). […]

[2] = tested on: Spodoptera littoralis (Egyptian Cotton Leafworm); assay: Spodoptera littoralis cotton leaf disc spray test; settings: same protocol, 200 ppm, 3 DAT
Protocol: as §1
Spodoptera littoralis (Egyptian Cotton Leafworm):
as §2

[3] = tested on: Heliothis virescens (Tobacco Budworm); assay: Heliothis virescens egg test on artificial diet; settings: same protocol, 200 ppm, 4 days
Protocol: as §1, §2

[4] = tested on: Diabrotica balteata (Corn Root Worm); assay: Diabrotica balteata larvae test on artificial diet; settings: same protocol, 200 ppm, 5 days

Measured: damage to the test organisms

CSc1cc(C(F)(F)F)ccc1C(=O)Nc1cc(C(=O)Nc2c(C)cc(C3(C(F)(F)F)CC(c4ccc(Cl)cc4)=NO3)cc2C)ccc1C#N (centres unmarked) [A8]
little or no damage: all assays above

COC(=O)c1ccc(C(=O)Nc2cc(C(=O)Nc3c(C)cc(C4(C(F)(F)F)CC(c5ccc(Cl)cc5)=NO4)cc3C)ccc2C#N)cc1 (centres unmarked) [A20]
little or no damage: all assays above
